The record followed here is publication PMC10296347, “Identification of the Stapled α-Helical Peptide ATSP-7041 as a Substrate and Strong Inhibitor of OATP1B1 In Vitro” (Biomolecules, 2023).

The target of this series is CYP2C9 (Homo sapiens, UniProt P11712). The note with it: microsomes. As for the experimental part: Text S1. Supplementary Materials and Methods.
Male Human Liver Pooled S9; Tokyo, Japan). Midazolam, midazolam-d4, 1ʹ-hydroxymidazolam, testosterone, testosterone-d3, and 6β-hydroxytestosterone, were purchased […]
(Fluorometric)) were purchased from BioVision. Inc. (Milpitas, CA, USA). Reversed vesicles […]
were commercially available.
2. Evaluation of ATSP-7041 as a substrate of CYPs
S9, with or without the NADPH generation system. S9 (A), at a 2 mg/mL protein concentration […]
The reaction solution (400 μL) was then
3. Evaluation of ATSP-7041 as an inhibitor of CYPs […]
the manufacturer’s protocol. […]
the indicated periods of times. The substrates, positive control inhibitors, and fluorescence […]
Table S1. Parameters used in LC/MS analysis.
Table S2. Substrates and positive control inhibitors used for CYPs inhibition screening.
Residual activity (% of control, i.e. without test chemical for inhibition) of human CYPs with ATSP-7041 (10 μM) in CYPs inhibition screening. The activity of CYPs were calculated as background-corrected reaction rates using the linear phase of reaction progress […]
curve. Data are presented as the mean ± S.D. (n = 3). *
Analyte Transition Polarity Ion source voltage Source temp. Collision energy LC gradient program […]
5% B (0-1 min) - 45% B (3 min)
CYP isoform Substrate Concentration Positive control inhibitor Concentration Detection Kit No. […]

Sequence of CYP2C9 (P11712 whole entry): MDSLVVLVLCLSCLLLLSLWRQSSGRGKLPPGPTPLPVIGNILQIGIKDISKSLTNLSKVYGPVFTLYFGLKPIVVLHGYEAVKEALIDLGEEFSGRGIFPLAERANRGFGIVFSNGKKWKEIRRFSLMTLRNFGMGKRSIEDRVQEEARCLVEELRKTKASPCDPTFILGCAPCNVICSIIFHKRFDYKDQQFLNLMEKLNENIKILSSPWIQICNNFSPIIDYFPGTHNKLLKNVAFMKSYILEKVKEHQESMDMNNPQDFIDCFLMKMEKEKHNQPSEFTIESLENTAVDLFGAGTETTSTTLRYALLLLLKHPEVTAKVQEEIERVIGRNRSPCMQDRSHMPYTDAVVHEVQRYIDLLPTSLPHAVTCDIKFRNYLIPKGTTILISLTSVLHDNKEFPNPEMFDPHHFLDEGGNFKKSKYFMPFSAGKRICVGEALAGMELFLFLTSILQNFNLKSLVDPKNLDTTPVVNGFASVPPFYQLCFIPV

As to `Nc1ccc(S(=O)(=O)Nc2ccnn2-c2ccccc2)cc1` [Sulfaphenazole], the “Residual activity (% of control) CYP2C9, positive control inhibitor” value is given as 8.59 ± 2.06 % of control.
